This is an account of results in US20250145594A1, “MODULATORS OF THE INTEGRATED STRESS PATHWAY” (Calico Life Sciences LLC, priority 2020, published 2025).

This assay deals with ATF4 luciferase reporter in HEK293T cells. Description: ATF4-Luc assay (in vitro model of VWMD). In kind it is cell-based, human. Conditions: HEK293T cells carrying the ATF4 luciferase reporter, 1 μg/mL tunicamycin, One Glo luminescence. Put shortly: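 Stable HEK293T line expressing firefly luciferase behind the human ATF4 5′-UTR, treated with 1 μg/mL tunicamycin plus compound for 7 hours. Luminescence read with One Glo; EC50 determined.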

By pEC50 is commonly meant −log10 of the EC50, conventionally taken in molar units.

pEC50: −log10 of the molar value.

As for `O=C(COc1ccc(Cl)c(F)c1)NC12CC(c3ccc(C(=O)N4CC(OC(F)(F)F)C4)nc3)(C1)C2` [Compound 605, 2-(4-chloro-3-fluorophenoxy)-N-(3-{6-[3-(trifluoromethoxy)azetidine-1-carbonyl]pyridin-3-yl}bicyclo[1.1.1]pentan-1-yl)acetamide], under “Homo sapiens, HEK-293T, 7 h”, the pEC50 is over 8.00.

Regarding `O=C(N[C@H]1CC[C@H](n2cc(-c3ccc(C(F)(F)F)cn3)cn2)CC1)[C@H]1C[C@@H](O)c2cc(Cl)c(F)cc2O1` [Compound 578, (2R,4R)-6-chloro-7-fluoro-4-hydroxy-N-[(1r,4R)-4-{4-[5-(trifluoromethyl)pyridin-2-yl]-1H-pyrazol-1-yl}cyclohexyl]-3,4-dihydro-2H-1-benzopyran-2-carboxamide], the negative-log EC50 (pEC50) (Homo sapiens, HEK-293T, 7 h) is over 8.00.

In the case of `O=C(NC12CC(n3cc(-c4cnn(CC(F)(F)F)c4)cn3)(C1)C2)[C@H]1C[C@@H](O)c2cc(Cl)c(Cl)cc2O1` [Compound 565, (2R,4R)-6,7-dichloro-4-hydroxy-N-{3-[1′-(2,2,2-trifluoroethyl)-1H,1′H-[4,4′-bipyrazol]-1-yl]bicyclo[1.1.1]pentan-1-yl}-3,4-dihydro-2H-1-benzopyran-2-carboxamide], where the note is “Homo sapiens, HEK-293T, 7 h”, the pEC50 was over 8.00.

In the case of `O=C(NC12CC(n3cc(-c4ccc(C(F)(F)F)cn4)cn3)(C1)C2)[C@@H]1C[C@@H](O)c2cc(C(F)(F)F)ccc2O1` [Compound 548, (2S,4R)-4-hydroxy-6-(trifluoromethyl)-N-(3-{4-[5-(trifluoromethyl)pyridin-2-yl]-1H-pyrazol-1-yl}bicyclo[1.1.1]pentan-1-yl)-3,4-dihydro-2H-1-benzopyran-2-carboxamide], where the note is “Homo sapiens, HEK-293T, 7 h”, the pEC50 was over 8.00.

Turning to `O=C(N[C@H]1CC[C@H](n2cc(OCCCOC(F)(F)F)cn2)CC1)[C@H]1C[C@@H](O)c2cc(Cl)c(F)cc2O1` [Compound 422, (2R,4R)-6-chloro-7-fluoro-4-hydroxy-N-[(1r,4R)-4-{4-[3-(trifluoromethoxy)propoxy]-1H-pyrazol-1-yl}cyclohexyl]-3,4-dihydro-2H-1-benzopyran-2-carboxamide], for the setting “Homo sapiens, HEK-293T, 7 h”, the pEC50 is over 8.00.

Turning to `O=C(NC12CC(n3cc([C@@H]4CC[C@H](OC(F)(F)F)C4)nn3)(C1)C2)[C@H]1C[C@@H](O)c2cc(Cl)ccc2O1` (mixture of isomers) [Compound 539, (2R,4R)-6-chloro-4-hydroxy-N-(3-{4-[(1RS,3SR)-3-(trifluoromethoxy)cyclopentyl]-1H-1,2,3-triazol-1-yl}bicyclo[1.1.1]pentan-1-yl)-3,4-dihydro-2H-1-benzopyran-2-carboxamide], the pEC50 (Homo sapiens, HEK-293T, 7 h) is 7.30 to 8.00.

As to `O=C(COc1ccc(Cl)c(F)c1)NC12CC(n3cc(OCCCOC(F)(F)F)cn3)(C1)C2` [Compound 607, 2-(4-chloro-3-fluorophenoxy)-N-(3-{4-[3-(trifluoromethoxy)propoxy]-1H-pyrazol-1-yl}bicyclo[1.1.1]pentan-1-yl)acetamide], the negative-log EC50 (pEC50) (7 hours) was over 8.00.

Turning to `CN(CCOC(F)(F)F)c1cnn(C23CC(NC(=O)[C@H]4C[C@@H](O)c5cc(Cl)ccc5O4)(C2)C3)c1` [Compound 411, (2R,4R)-6-chloro-4-hydroxy-N-[3-(4-{methyl[2-(trifluoromethoxy)ethyl]amino}-1H-pyrazol-1-yl)bicyclo[1.1.1]pentan-1-yl]-3,4-dihydro-2H-1-benzopyran-2-carboxamide], under “Homo sapiens, HEK-293T, 7 h”, the negative logarithm of the EC50 (pEC50) is 7.30 to 8.00.

As for `O=C(COc1ccc(Cl)c(F)c1)NC12CC(c3ccc(OCCCOC(F)(F)F)nc3)(C1)C2` [Compound 455, 2-(4-chloro-3-fluorophenoxy)-N-(3-{6-[3-(trifluoromethoxy)propoxy]pyridin-3-yl}bicyclo[1.1.1]pentan-1-yl)acetamide], the pEC50 (Homo sapiens, HEK-293T, 7 h) is 6.60 to 7.30.

For the compound `O=C(NC12CC(n3cc(OCCOC(F)(F)F)cn3)(C1)C2)[C@H]1C[C@@H](O)c2cc(Cl)ccc2O1` [Compound 412, (2R,4R)-6-chloro-4-hydroxy-N-(3-{4-[2-(trifluoromethoxy)ethoxy]-1H-pyrazol-1-yl}bicyclo[1.1.1]pentan-1-yl)-3,4-dihydro-2H-1-benzopyran-2-carboxamide], where the note is “Homo sapiens, HEK-293T, 7 h”, the pEC50 is over 8.00.

For the compound `O=C(NC12CC(n3cc(-c4ccc(OC(F)(F)F)cn4)cn3)(C1)C2)[C@@H]1C[C@@H](O)c2cc(C(F)(F)F)ccc2O1` [Compound 550, (2S,4R)-4-hydroxy-N-(3-{4-[5-(trifluoromethoxy)pyridin-2-yl]-1H-pyrazol-1-yl}bicyclo[1.1.1]pentan-1-yl)-6-(trifluoromethyl)-3,4-dihydro-2H-1-benzopyran-2-carboxamide], the pEC50 (Homo sapiens, HEK-293T, 7 h) was over 8.00.

Turning to `O=C(NC12CC(c3ccc(-n4cnc(C(F)(F)F)c4)nc3)(C1)C2)[C@H]1C[C@@H](O)c2cc(Cl)c(F)cc2O1` [Compound 480, (2R,4R)-6-chloro-7-fluoro-4-hydroxy-N-(3-{6-[4-(trifluoromethyl)-1H-imidazol-1-yl]pyridin-3-yl}bicyclo[1.1.1]pentan-1-yl)-3,4-dihydro-2H-1-benzopyran-2-carboxamide], the pEC50 (Homo sapiens, HEK-293T, 7 h) was over 8.00.

With `O=C(NC12CC(n3cc(C(=O)N4CC[C@H](OC(F)(F)F)C4)cn3)(C1)C2)[C@@H]1C[C@@H](O)c2cc(Cl)ccc2O1` [Compound 324, (2S,4R)-6-chloro-4-hydroxy-N-(3-{4-[(3S)-3-(trifluoromethoxy)pyrrolidine-1-carbonyl]-1H-pyrazol-1-yl}bicyclo[1.1.1]pentan-1-yl)-3,4-dihydro-2H-1-benzopyran-2-carboxamide], the pEC50 (Homo sapiens, HEK-293T, 7 h) is over 8.00.

As for `COc1ncc(-c2cnn(C34CC(NC(=O)[C@H]5C[C@@H](O)c6cc(Cl)ccc6O5)(C3)C4)c2)cn1` [Compound 320, (2R,4R)-6-chloro-4-hydroxy-N-{3-[4-(2-methoxypyrimidin-5-yl)-1H-pyrazol-1-yl]bicyclo[1.1.1]pentan-1-yl}-3,4-dihydro-2H-1-benzopyran-2-carboxamide], the pEC50 (Homo sapiens, HEK-293T, 7 h) is 7.30 to 8.00.

`O=C(NC12CC(n3cc(C(=S)N4CC[C@H](OC(F)(F)F)C4)cn3)(C1)C2)[C@H]1C[C@@H](O)c2cc(Cl)ccc2O1` [Compound 390, (2R,4R)-6-chloro-4-hydroxy-N-(3-{4-[(3S)-3-(trifluoromethoxy)pyrrolidine-1-carbothioyl]-1H-pyrazol-1-yl}bicyclo[1.1.1]pentan-1-yl)-3,4-dihydro-2H-1-benzopyran-2-carboxamide]: the pEC50 (Homo sapiens, HEK-293T, 7 h) is over 8.00.

In the case of `O=C(NC12CC(n3cc(-c4ccc(C(F)(F)F)cn4)cn3)(C1)C2)[C@H]1C[C@@H](O)c2cc(Cl)ccc2O1` [Compound 364, (2R,4R)-6-chloro-4-hydroxy-N-(3-{4-[5-(trifluoromethyl)pyridin-2-yl]-1H-pyrazol-1-yl}bicyclo[1.1.1]pentan-1-yl)-3,4-dihydro-2H-1-benzopyran-2-carboxamide], the negative-log EC50 (pEC50) (Homo sapiens, HEK-293T, 7 h) was over 8.00.

As to `O=C(COc1ccc(Cl)c(F)c1)NC12CCC(n3cc(OCCOC(F)(F)F)cn3)(C1)C2` [Compound 595, 2-(4-chloro-3-fluorophenoxy)-N-(4-{4-[2-(trifluoromethoxy)ethoxy]-1H-pyrazol-1-yl}bicyclo[2.1.1]hexan-1-yl)acetamide], under “Homo sapiens, HEK-293T, 7 h”, the pEC50 was 6.30 to 6.60.

Consider `O=C(NC12CC(n3cc(OCCOC(F)(F)F)cn3)(C1)C2)[C@@H]1C[C@@H](O)c2cc(Cl)ccc2O1` [Compound 631, (2S,4R)-6-chloro-4-hydroxy-N-(3-{4-[2-(trifluoromethoxy)ethoxy]-1H-pyrazol-1-yl}bicyclo[1.1.1]pentan-1-yl)-3,4-dihydro-2H-1-benzopyran-2-carboxamide], for which, for the setting “Homo sapiens, HEK-293T, 7 h”, the pEC50 is 7.30 to 8.00.

Turning to `O=C(NC12CC(n3cc(-c4ccc(OC(F)(F)F)cn4)cn3)(C1)C2)[C@H]1C[C@@H](O)c2cc(F)ccc2O1` (racemic) [Compound 552, rac-(2R,4R)-6-fluoro-4-hydroxy-N-(3-{4-[5-(trifluoromethoxy)pyridin-2-yl]-1H-pyrazol-1-yl}bicyclo[1.1.1]pentan-1-yl)-3,4-dihydro-2H-1-benzopyran-2-carboxamide], for the setting “Homo sapiens, HEK-293T, 7 h”, the pEC50 is over 8.00.

Take `O=C(NC12CC(n3cc(-c4ccc(C(F)(F)F)cn4)cn3)(C1)C2)[C@H]1C[C@H](O)c2cc(Cl)c(F)cc2O1` [Compound 478, (2R,4S)-6-chloro-7-fluoro-4-hydroxy-N-(3-{4-[5-(trifluoromethyl)pyridin-2-yl]-1H-pyrazol-1-yl}bicyclo[1.1.1]pentan-1-yl)-3,4-dihydro-2H-1-benzopyran-2-carboxamide]: the pEC50 (Homo sapiens, HEK-293T, 7 h) was over 8.00.

Take `O=C(NC12CC(n3cnc(-c4ccc(Cl)cc4F)c3)(C1)C2)[C@H]1C[C@@H](O)c2cc(Cl)ccc2O1` [Compound 343, (2R,4R)-6-chloro-N-{3-[4-(4-chloro-2-fluorophenyl)-1H-imidazol-1-yl]bicyclo[1.1.1]pentan-1-yl}-4-hydroxy-3,4-dihydro-2H-1-benzopyran-2-carboxamide]: the pEC50 (Homo sapiens, HEK-293T, 7 h) is over 8.00.

In the case of `O=C(NC12CC(n3cc(-c4cnn(C(F)(F)F)c4)cn3)(C1)C2)[C@H]1C[C@@H](O)c2cc(Cl)c(F)cc2O1` [Compound 479, (2R,4R)-6-chloro-7-fluoro-4-hydroxy-N-{3-[1′-(trifluoromethyl)-1H,1′H-[4,4′-bipyrazol]-1-yl]bicyclo[1.1.1]pentan-1-yl}-3,4-dihydro-2H-1-benzopyran-2-carboxamide], the pEC50 (Homo sapiens, HEK-293T, 7 h) was over 8.00.

For the compound `O=C(NC12CC(n3cc(CCCCOC(F)(F)F)nn3)(C1)C2)[C@H]1C[C@@H](O)c2cc(Cl)ccc2O1` [Compound 465, (2R,4R)-6-chloro-4-hydroxy-N-(3-{4-[4-(trifluoromethoxy)butyl]-1H-1,2,3-triazol-1-yl}bicyclo[1.1.1]pentan-1-yl)-3,4-dihydro-2H-1-benzopyran-2-carboxamide], the pEC50 (Homo sapiens, HEK-293T, 7 h) was over 8.00.

For the compound `O=C(N[C@H]1CC[C@H](n2cc(OCCCC(F)(F)F)cn2)CC1)[C@H]1C[C@@H](O)c2cc(Cl)ccc2O1` [Compound 526, (2R,4R)-6-chloro-4-hydroxy-N-{(1r,4R)-4-[4-(4,4,4-trifluorobutoxy)-1H-pyrazol-1-yl]cyclohexyl}-3,4-dihydro-2H-1-benzopyran-2-carboxamide], the pEC50 (Homo sapiens, HEK-293T, 7 h) was 7.30 to 8.00.
